Reference: PMC6505380, “An Extensively Humanized Mouse Model to Predict Pathways of Drug Disposition and Drug/Drug Interactions, and to Facilitate Design of Clinical Trials” (Drug Metabolism and Disposition, 2019)
Entries after “also recorded” stand apart in the source; their conditions may differ. Where two headings read alike, the source gives them in different places. Values belong to the compound of their own block, whether it stands above or below them.

What was measured:
[1] = test system: CYP2D6; design: method as in VandenBrink et al., 2012; details: man; ref VandenBrink et al., 2012; cited from earlier work
[2] = biological target: T1, CYP1A2 (Homo sapiens, UniProt P05177); test: Enzyme inhibition assay, caffeine to paraxanthine (HLM, 8HUM microsomes); details: caffeine 220 μM in cocktail, furafylline 3, enoxacin 200, fluconazole 300, sulfaphenazole 3, quinidine 3, paroxetine 10, ketoconazole 1 μM
T1 sequence (P05177 1-516): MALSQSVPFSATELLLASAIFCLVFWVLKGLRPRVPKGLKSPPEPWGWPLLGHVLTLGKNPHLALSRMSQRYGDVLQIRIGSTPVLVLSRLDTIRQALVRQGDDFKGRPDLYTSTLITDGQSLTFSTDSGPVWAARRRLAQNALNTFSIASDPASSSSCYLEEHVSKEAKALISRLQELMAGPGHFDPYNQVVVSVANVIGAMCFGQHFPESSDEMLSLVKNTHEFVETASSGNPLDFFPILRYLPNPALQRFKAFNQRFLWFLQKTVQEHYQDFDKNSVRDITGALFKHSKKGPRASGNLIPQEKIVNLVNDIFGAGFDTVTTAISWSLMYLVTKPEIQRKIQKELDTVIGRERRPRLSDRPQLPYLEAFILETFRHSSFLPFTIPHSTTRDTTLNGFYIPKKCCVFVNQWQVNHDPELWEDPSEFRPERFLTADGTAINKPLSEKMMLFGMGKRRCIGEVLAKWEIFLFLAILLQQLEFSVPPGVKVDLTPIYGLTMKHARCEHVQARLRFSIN
Description: (§1) After a 5-minute preincubation at 37°C, reactions were initiated by addition of NADPH (1.3 mM). […] The samples were then centrifuged at 3000g for 55 minutes at 4°C, and an aliquot of the supernatant fraction was analyzed by LC-MS/MS. All experiments were performed at least in triplicate.

[3] = Dabrafenib pharmacokinetics in 8HUM mice: effect of rifampicin and ketoconazole; assay type: in vivo, mouse; details: for Cmax / half-life / AUC: female, 8HUM, mouse, whole blood, po, 10 mg/kg, female 8HUM mice, dabrafenib 10 mg/kg PO; for AUC: read-out: AUC0 t
Description: Pharmacokinetic parameters were calculated by Phoenix WinNonlin version 8.0.0.3176 (Certara, Princeton, NJ).
Fig. 3.

[4] = healthy volunteers; single dose of 200 mg ketoconazole 2 hours prior to midazolam; ref McCrea et al., 1999; cited from earlier work
[5] = biological target: T2, CYP2C9 (Homo sapiens, UniProt P11712); test: Enzyme inhibition assay, tolbutamide hydroxylation (HLM, 8HUM microsomes); details: tolbutamide 2 μM in cocktail, furafylline 3, enoxacin 200, fluconazole 300, sulfaphenazole 3, quinidine 3, paroxetine 10, ketoconazole 1 μM
T2 sequence (P11712 whole entry): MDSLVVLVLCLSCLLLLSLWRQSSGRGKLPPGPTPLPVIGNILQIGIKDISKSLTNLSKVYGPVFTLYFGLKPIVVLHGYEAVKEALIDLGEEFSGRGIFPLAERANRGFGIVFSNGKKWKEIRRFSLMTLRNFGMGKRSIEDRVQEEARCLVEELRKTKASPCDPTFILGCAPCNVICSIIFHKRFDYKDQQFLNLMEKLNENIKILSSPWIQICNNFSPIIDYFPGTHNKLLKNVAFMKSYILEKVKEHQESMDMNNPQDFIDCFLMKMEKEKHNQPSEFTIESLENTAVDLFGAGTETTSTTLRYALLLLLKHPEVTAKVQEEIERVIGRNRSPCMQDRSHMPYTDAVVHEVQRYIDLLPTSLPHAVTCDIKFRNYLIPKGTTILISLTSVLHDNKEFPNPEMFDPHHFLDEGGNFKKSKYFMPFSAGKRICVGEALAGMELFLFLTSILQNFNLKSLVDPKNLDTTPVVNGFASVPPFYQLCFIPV
Description: as §1

[6] = design: method as in Thijssen et al., 2001; unit not given beside the values; details: man; ref Thijssen et al., 2001; cited from earlier work
[7] = Microsomal stability of S-acenocoumarol; details: 1 μM, 2 mg protein/ml
Description: The reaction mixture aliquots were taken at specified time points and mixed with an equal volume of acetonitrile containing warfarin (50 ng/ml) as an internal standard. […] The concentrations of S-acenocoumarol were measured by LC-MS/MS. Chromatographic separation was performed on a Kinetex C18 100 Å column (2.6 μm; 5.0 × 2.1 mm) (Phenomenex) using an injection volume of 10 μl and a run time of 7 minutes. The detector used was a Micromass Quattro Micro mass spectrometer (Waters Corporation) run in electrospray positive ion mode.

[8] = biological target: T2, CYP2C9; design: pooled rifampicin-treated male and female 8HUM mice (8HUM) or pooled human liver microsomes (HLM); host or cells: liver microsomes: pooled human liver; liver of 8HUM mice carrying human CYP2C9 driven by the albumin promoter; details: man; ref Thijssen et al., 2001; cited from earlier work
[9] = Pharmacokinetics of S-acenocoumarol in 8HUM and CypC4KO mice: effect of sulfaphenazole; assay type: in vivo, mouse; details: S-acenocoumarol 1 mg/kg oral
Description: Mice were administered two daily doses of SJW before receiving a single oral dose of S-acenocoumarol (1 mg/kg). S-acenocoumarol was dissolved in dimethyl sulfoxide (1 mg/ml) and diluted 10-fold in 100 mM potassium phosphate buffer (pH8) or in a solution of sulfaphenazole (9.78 mg/ml) in the same buffer. Compounds were administered to mice at a volume of 10 ml/kg. Blood collection and sample preparation was performed as described above and analytical details are provided in Supplemental Data.
Fig. 6. […] (A) In vitro microsomal stability assay. […] Values show are mean ± S.D.

[10] = design: method as in Suttle et al., 2015; details: patients, 150 mg twice per day, ref Suttle et al., 2015, cited from earlier work
[11] = test system: 8HUM liver microsomes; test: Dibenzylfluorescein O-debenzylation in liver microsomes of dabrafenib-treated 8HUM mice; assay type: in vitro ADME, mouse; details: for Dibenzylfluorescein O-debenzylation: 8HUM liver microsomes, dabrafenib-treated
Description: The O-debenzylation of dibenzylfluorescein (DBF) was measured as described above for the 7-methoxyresorufin O-demethylation assay, with the following modifications: the DBF concentration was 2 μM; the excitation filter was 485 nm; the emission filter was 530 nm; 20 pmol of the fluorescein was added to the control wells.
(§2) Fig. 8. Effect of dabrafenib on midazolam pharmacokinetics in 8HUM mice. […] Dab, Dabrafenib; MDZ, midazolam; Unt, untreated; Veh, vehicle.

[12] = biological target: T1, CYP1A2; test: 7-Methoxyresorufin O-demethylation in liver microsomes of treated 8HUM mice; details: 8HUM liver microsomes, dabrafenib-treated
Description: A mixture of either 7-methoxyresorufin or 7-ethoxyresorufin (1 μM) and 8HUM liver microsomes or HLM (∼0.38 mg protein/ml) in 100 mM potassium phosphate buffer (pH 7.4) supplemented with MgCl2 (3.3 mM) was incubated at 37°C for 5 minutes before the addition of NADPH (final concentration 1.2 mM). […] Slopes of the linear part of the kinetic curves were calculated using Ascent Software Version 2.4.1 (Labsystems). For each reaction two controls, with and without reaction product resorufin (40 pmol) were run. Fluorescence was measured from both control wells and the difference in fluorescence intensity between wells with and without resorufin was used for the conversion of the relative fluorescence units to the picomoles of the reaction product.

[13] = test system: Cytochrome c reductase; test: Cytochrome c reductase activity in liver microsomes of dabrafenib-treated 8HUM mice; assay type: in vitro ADME, mouse; details: 8HUM liver microsomes
Description: A mixture of cytochrome c from bovine heart (40 μM) and mouse liver microsomes (∼7.6 μg/ml) in 0.3 M potassium phosphate buffer (pH 7.7) was incubated at 37°C for at least 2 minutes before the reaction was started by addition of NADPH (0.1 mM final concentration). The absorbance at 550 nm was recorded and the reaction rate calculated from the linear region of the absorbance time course. The extinction coefficient of 0.0211 μM^−1cm^−1 was used ([van Gelder and Slater, 1962]) to calculate concentration of the reduced cytochrome c.
as §2

[14] = test system: CYP3A4; test: Hepatic CYP3A4 expression in 8HUM mice after dabrafenib (immunoblot); assay type: in vivo, mouse; details: dabrafenib 10 mg/kg PO
Description: Female 8HUM mice received either two daily oral doses of dabrafenib (n = 3; 15 weeks; 10 mg/kg) or vehicle (n = 3; 16 weeks; 0.5% hydroxypropylmethylcellulose, 0.2% Tween 80). On day 3 both groups were administered midazolam (3 mg/kg) by oral gavage. Whole blood collection and sample preparation were performed as described above, and analytical details are described in Supplemental Data. A third group of female 8HUM mice (n = 3; 17–22 weeks) received two daily doses of dabrafenib (10 mg/kg) by oral gavage and were culled for tissue collection on day 3 to allow determination of the effects of dabrafenib on P450 expression at the start of the pharmacokinetic (PK) study.
(§3) Fig. 7. […] Arrow indicates position of Cyp2b10 band. GRP78 was used as a loading control.
Fig. 8. Effect of dabrafenib on midazolam pharmacokinetics in 8HUM mice. Adult female 8HUM mice (n = 3) were treated with vehicle or dabrafenib (10 mg/kg) PO daily for 2 days, and on day 3 were administered midazolam (3 mg/kg) PO and PK profiling carried out as described in Materials and Methods. (A) Pharmacokinetic profiling for midazolam in 8HUM mice receiving either vehicle (open circles) or dabrafenib (closed triangles). Data shown are mean ± S.D. (B) Immunoblotting of liver microsomes from 8HUM mice, untreated or treated as above, against mouse and human P450 isozymes. Dab, Dabrafenib; MDZ, midazolam; Unt, untreated; Veh, vehicle. […]

[15] = test system: 8HUM liver microsomes; test: Dextromethorphan O-demethylation in liver microsomes of dabrafenib-treated 8HUM mice; assay type: in vitro ADME, mouse
Description: After 5 minutes, the reaction was stopped by combining 100 μl of the reaction mixture with 120 μl of 0.2 M hydrochloric acid containing dextrorphan-d3 (92 ng/ml) as an internal standard. […] The concentrations of […] were measured by liquid chromatography–tandem mass spectrometry (LC-MS/MS). […] The multiple reaction monitoring parameters for dextrorphan and dextrorphan-d3 were 258.16 and 261.24 (precursor ions) and 157.04 (one product ion for both compounds), respectively.
as §2

[16] = test system: Cyp2b10; test: Murine Cyp2b10 expression in humanized mice after treatment (immunoblot); assay type: in vivo, mouse; details: 8HUM mice, dabrafenib 10 mg/kg
Description: We therefore sought to identify a specific, clinically relevant PXR agonist that was nontoxic. […] Subsequent studies were therefore undertaken using SJW to induce CYP3A4 expression in 8HUM mice.
as §3
Fig. 8. Effect of dabrafenib on midazolam pharmacokinetics in 8HUM mice. Adult female 8HUM mice (n = 3) were treated with vehicle or dabrafenib (10 mg/kg) PO daily for 2 days, and on day 3 were administered midazolam (3 mg/kg) PO and PK profiling carried out as described in Materials and Methods. (A) Pharmacokinetic profiling for midazolam in 8HUM mice receiving either vehicle (open circles) or dabrafenib (closed triangles). Data shown are mean ± S.D. (B) Immunoblotting of liver microsomes from 8HUM mice, untreated or treated as above, against mouse and human P450 isozymes. Dab, Dabrafenib; MDZ, midazolam; Unt, untreated; Veh, vehicle. One group of dabrafenib-treated mice (Dab) were sacrificed on day 3 without exposure to midazolam to determine the effects of dabrafenib on P450 expression at the start of the PK profiling. […] Std, standard, recombinant human P450 protein or phenobarbital-treated liver microsomes (Cyp2b10); HLM, human liver microsomes.

[17] = female, 8HUM, mouse, in vivo
Description: Blood sampling and analysis was carried out as described above and in Supplemental Data.

[18] = test system: CYP2D6; test: Kinetic parameters of 4-hydroxyl debrisoquine formation in liver microsomes (HLM, 8HUM); assay type: in vitro ADME; details: pooled human liver microsomes (HLM)
Description: All samples were handled in amber tubes under conditions of subdued light for the duration of the procedure. […] The samples were then centrifuged at 3000g for 55 minutes at 4°C and an aliquot of the supernatant fraction was analyzed by LC-MS/MS.
Calibration curves were constructed with authentic metabolite standards and linear regression analysis used to calculate the amount of metabolite formed in each test sample. […] The 7-ethoxyresorufin O-deethylation assay was carried out as detailed below.

[19] = Rifampicin 10 mg/kg i.p. daily for 3 days
[20] = Rifampicin + ketoconazole 20 mg/kg PO 30 minutes before
[21] = Vehicle (corn oil) pretreatment

Structure (SMILES): CNCCCN1c2ccccc2CCc2ccccc21 [desipramine]
CYP2D6 fm [1]: 0.88

Structure (SMILES): CC(=O)N1CCN(c2ccc(OCC3COC(Cn4ccnc4)(c4ccc(Cl)cc4Cl)O3)cc2)CC1 (stereo not drawn) [Ketoconazole, ketoconazole]
Caffeine (Paraxanthine) activity, percent of activity measured in the absence of inhibitor ([2]; 8HUM microsomes […]): 85 ± 34%
Caffeine (Paraxanthine) activity, percent of activity measured in the absence of inhibitor ([2]; HLM […]): 135 ± 45%
Effect of prior ketoconazole on dabrafenib exposure (Cmax and AUC) ([3]; rifampicin-treated female 8HUM mice, ketoconazole 20 mg/kg PO 30 min before dabrafenib): approximately doubling both the Cmax and AUC
Increase of midazolam AUC [4]: ~5 fold
Tolbutamide (OH-Tolbutamide) activity, percent of activity measured in the absence of inhibitor ([5]; 8HUM microsomes […]): 92 ± 11%
Tolbutamide (OH-Tolbutamide) activity, percent of activity measured in the absence of inhibitor ([5]; HLM […]): 154 ± 66%

Structure (SMILES): CC(=O)C[C@@H](c1ccc([N+](=O)[O-])cc1)c1c(O)c2ccccc2oc1=O [S-acenocoumarol]
AUCR in CYP2C9 extensive versus poor metabolizers [6]: 16.3
Metabolism in liver microsomes ([7]; liver microsomes from CYP2C9 humanized mice): rapidly metabolized
Metabolism in liver microsomes ([7]; microsomes from wild-type, Cyp2cKO, Cyp2c/2d/3a KO, or hepatic P450 reductase-null mice): practically indistinguishable from that in the no cofactor control
fraction metabolized by CYP2C9 [8]: 0.94
AUC ([9]; SJW-pretreated 8HUM mice, coadministered sulfaphenazole): 2008 ± 159 ng·h/mL
AUC ([9]; SJW-pretreated 8HUM mice, vehicle-treated): 230 ± 30 ng·h/mL
AUC ([9]; SJW-pretreated CypC4KO mice): 2520 ± 214 ng·h/mL

Methoxyresorufin O-demethylation ([12]; 24 h after final dose): 52 ± 4
Methoxyresorufin O-demethylation ([12]; 48 h after final dose): 36 ± 1
Cytochrome c reductase ([13]; 24 h after final dose): 301 ± 19
Cytochrome c reductase ([13]; 48 h after final dose): 244 ± 19
Cmax [3, 19]: 1740 ± 733 ng/mL
half-life [3, 19]: 1.4 ± 0.3 h
AUC [3, 19]: 6150 ± 2930 ng·h/mL
Cmax [3, 20]: 3650 ± 1220 ng/mL
half-life [3, 20]: 1.8 ± 0.1 h
AUC [3, 20]: 12900 ± 2710 ng·h/mL
Cmax [3, 21]: 3740 ± 613 ng/mL
half-life [3, 21]: 2.6 ± 0.4 h
AUC [3, 21]: 21900 ± 1690 ng·h/mL
Induction of murine Cyp2b10 [16]: induced weakly
Structure (SMILES): CC(C)(C)c1nc(-c2cccc(NS(=O)(=O)c3c(F)cccc3F)c2F)c(-c2ccnc(N)n2)s1 [dabrafenib]
AUC0-t ([10]; day 1): 9359 ng·h/mL
half-life ([10]; day 1): 4.2 h
AUC0-t ([10]; day 18): 6545 ng·h/mL
half-life ([10]; day 18): 2.1 h
Dibenzylfluorescein O-debenzylation ([11]; 24 h after final dose): 440 ± 31
Dibenzylfluorescein O-debenzylation ([11]; 48 h after final dose): 151 ± 5
Increase of 7-benylfluorescein O-debenzylation ([11]; 24 hours after the second dabrafenib dose, vs vehicle): approximately 5.5 fold
Elevation of 7-benylfluorescein O-debenzylation ([11]; 24 hours later (48 h after final dabrafenib dose), vs control): about twice control values
CYP3A4 induction [14]: potent PXR activator and CYP3A4 inducer; also recorded: is a CYP3A4 inducer; also recorded: induction of CYP3A4
Dextromethorphan O-demethylation ([15]; 24 h after final dose): 726 ± 24
Dextromethorphan O-demethylation ([15]; 48 h after final dose): 614 ± 28

CYP2D6 fm (fraction metabolized) [17]: 0.88
Km at 40 min ([18]; pH 7.4): 25 ± 7 µM
Structure (SMILES): N=C(N)N1CCc2ccccc2C1 [Debrisoquine, debrisoquine]
Vmax [18]: 25 ± 2 pmol/min per milligram protein
